Experimental data: patent publication US12448388B2, “PRMT5 inhibitors and uses thereof” (Gilead Sciences, Inc., priority 2023, dated 2025)

System: HCT116 MTAP-deleted cell lines
Experiment: Cell viability assay (CellTiter-Glo, 7 days), HCT116 MTAP-deleted
Assay type: cell-based
Settings: Homo sapiens, HCT-116; cell viability assay, HCT116 MTAP-deleted; class symbols; read-out: CC50
Procedure, shortened: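 Luminescent ATP readout (CellTiter-Glo) after 7 days of continuous compound exposure gives the CC50 value. Cells were plated onto pre-dispensed DMSO dilution series of the PRMT5 inhibitors and kept at 37 °C in 5% CO2.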

Row | Structure (SMILES) | CC50 [nM]
1 | CN(C(=O)c1cc2c(cc1F)nc(N)c1cncn12)[C@@H]1COc2cc(C3CC3(F)F)ccc21 (stereo partly drawn) [Ff-574, 4-amino-N-((3S)-6-(2,2-difluorocyclopropyl)-2,3-dihydrobenzofuran-3-yl)-7-fluoro-N-methylimidazo[1,5-a]quinoxaline-8-carboxamide] | < 100
2 | CN(C(=O)c1cc2c(cc1F)nc(N)c1cncn12)[C@@H]1COc2cc(C3(C)CC3(F)F)ccc21 (stereo partly drawn) [Ff-575, 4-amino-N-((3S)-6-(2,2-difluoro-1-methylcyclopropyl)-2,3-dihydrobenzofuran-3-yl)-7-fluoro-N-methylimidazo[1,5-a]quinoxaline-8-carboxamide] | < 100
3 | CN(C(=O)c1cc2c(cc1F)nc(N)c1cncn12)[C@@H]1COc2cc(C(F)F)ccc21 [Ff-576, (S)-4-amino-N-(6-(difluoromethyl)-2,3-dihydrobenzofuran-3-yl)-7-fluoro-N-methylimidazo[1,5-a]quinoxaline-8-carboxamide] | 100 to 1000
4 | CN(C(=O)c1cc2c(cc1F)nc(N)c1cncn12)C(c1ccc(C(F)(F)F)cn1)C(F)F (stereo not shown) [Ff-577, 4-amino-N-(2,2-difluoro-1-(5-(trifluoromethyl)pyridin-2-yl)ethyl)-7-fluoro-N-methylimidazo[1,5-a]quinoxaline-8-carboxamide] | 100 to 1000
5 | C[C@H]1CN(C(=O)c2cc3c(cc2F)nc(N)c2cncn23)[C@H]2c3ccc(C#N)cc3C[C@H]2O1 [Ff-578, (2S,4aS,9aR)-4-(4-amino-7-fluoroimidazo[1,5-a]quinoxaline-8-carbonyl)-2-methyl-2,3,4,4a,9,9a-hexahydroindeno[2,1-b][1,4]oxazine-7-carbonitrile] | < 100
6 | CO[C@@H]1Cc2cc(Br)ccc2[C@@H]1N(C)C(=O)c1cc2c(cc1F)nc(N)c1cncn12 [Ff-579, 4-amino-N-((1S,2R)-5-bromo-2-methoxy-2,3-dihydro-1H-inden-1-yl)-7-fluoro-N-methylimidazo[1,5-a]quinoxaline-8-carboxamide] | < 100
7 | CO[C@@H]1Cc2cc(-c3cnn(C(F)F)c3)ccc2[C@@H]1N(C)C(=O)c1cc2c(cc1F)nc(N)c1cncn12 [Ff-580, 4-amino-N-((1S,2R)-5-(1-(difluoromethyl)-1H-pyrazol-4-yl)-2-methoxy-2,3-dihydro-1H-inden-1-yl)-7-fluoro-N-methylimidazo[1,5-a]quinoxaline-8-carboxamide] | 100 to 1000
8 | CO[C@@H]1Cc2cc(C(F)(F)F)ccc2[C@@H]1N(C)C(=O)c1cc2c(cc1F)nc(N)c1cncn12 [Ff-581, 4-amino-7-fluoro-N-((1S,2R)-2-methoxy-5-(trifluoromethyl)-2,3-dihydro-1H-inden-1-yl)-N-methylimidazo[1,5-a]quinoxaline-8-carboxamide] | 100 to 1000
9 | CN(C(=O)c1cc2c(cc1F)nc(N)c1cncn12)[C@H]1c2ccc(Br)cc2C[C@H]1OC(F)F [Ff-582, 4-amino-N-((1S,2R)-5-bromo-2-(difluoromethoxy)-2,3-dihydro-1H-inden-1-yl)-7-fluoro-N-methylimidazo[1,5-a]quinoxaline-8-carboxamide] | 100 to 1000
10 | CN(C(=O)c1cc2c(cc1F)nc(N)c1cncn12)[C@H]1c2ccc(-c3cnn(C(F)F)c3)cc2C[C@H]1OC(F)F [Ff-583, 4-amino-N-((1S,2R)-2-(difluoromethoxy)-5-(1-(difluoromethyl)-1H-pyrazol-4-yl)-2,3-dihydro-1H-inden-1-yl)-7-fluoro-N-methylimidazo[1,5-a]quinoxaline-8-carboxamide] | 100 to 1000
11 | CN(C(=O)c1cc2c(cc1F)nc(N)c1cncn12)[C@@H]1COc2cc(OC(F)F)c(F)cc21 [Ff-584] | < 100
12 | CN(C(=O)c1cc2c(cc1F)nc(N)c1cncn12)[C@@H]1COc2cc(OC(F)F)cc(F)c21 [Ff-585] | < 100
13 | Nc1nc2ccc(C(=O)N3CCC[C@@H]4Oc5cc(C(F)(F)F)ccc5[C@@H]43)cc2n2cnc(F)c12 [Ff-588, (4-amino-3-fluoroimidazo[1,5-a]quinoxalin-8-yl)((4aS,9bS)-7-(trifluoromethyl)-3,4,4a,9b-tetrahydrobenzofuro[3,2-b]pyridin-1(2H)-yl)methanone] | < 100
14 | Cc1ncc2c(N)nc3cc(F)c(C(=O)N(Cc4ccc(C(F)(F)F)cn4)C4(C)CC4)cc3n12 [Ff-589, 4-amino-7-fluoro-1-methyl-N-(1-methylcyclopropyl)-N-((5-(trifluoromethyl)pyridin-2-yl)methyl)imidazo[1,5-a]quinoxaline-8-carboxamide] | < 100
15 | Cc1ncn2c1c(N)nc1cc(F)c(C(=O)N(Cc3ccc(C(F)(F)F)cn3)C3(C)CC3)cc12 [Ff-590, 4-amino-7-fluoro-3-methyl-N-(1-methylcyclopropyl)-N-((5-(trifluoromethyl)pyridin-2-yl)methyl)imidazo[1,5-a]quinoxaline-8-carboxamide] | < 100
16 | CC(C)N(Cc1ccc(-c2ccc(OC(F)F)cc2)cc1F)C(=O)c1cc2c(cc1F)nc(N)c1cncn12 [Ff-591, 4-amino-N-((4′-(difluoromethoxy)-3-fluoro-[1,1′-biphenyl]-4-yl)methyl)-7-fluoro-N-isopropylimidazo[1,5-a]quinoxaline-8-carboxamide] | < 100

Row | Structure (SMILES) | CC50 [nM]
17 | CC(C)N(Cc1ccc(-c2cccc(OC(F)F)c2)cc1F)C(=O)c1cc2c(cc1F)nc(N)c1cncn12 [Ff-592, 4-amino-N-((3′-(difluoromethoxy)-3-fluoro-[1,1′-biphenyl]-4-yl)methyl)-7-fluoro-N-isopropylimidazo[1,5-a]quinoxaline-8-carboxamide] | < 100
18 | CC(C)N(Cc1ccc(-c2cnn(-c3ccccc3)c2)cc1F)C(=O)c1cc2c(cc1F)nc(N)c1cncn12 [Ff-593, 4-amino-7-fluoro-N-(2-fluoro-4-(1-phenyl-1H-pyrazol-4-yl)benzyl)-N-isopropylimidazo[1,5-a]quinoxaline-8-carboxamide] | < 100
19 | CC(C)N(Cc1ccc(-c2ccc[nH]c2=O)cc1F)C(=O)c1cc2c(cc1F)nc(N)c1cncn12 [Ff-594, 4-amino-7-fluoro-N-(2-fluoro-4-(2-oxo-1,2-dihydropyridin-3-yl)benzyl)-N-isopropylimidazo[1,5-a]quinoxaline-8-carboxamide] | 100 to 1000
20 | Nc1nc2cc(F)c(C(=O)N3CC[C@H]4C[C@@H]3c3ccc(Cl)nc34)cc2n2cncc12 [Ff-595, (4-amino-7-fluoroimidazo[1,5-a]quinoxalin-8-yl)((5R,9S)-2-chloro-5,7,8,9-tetrahydro-6H-5,9-methanopyrido[3,2-c]azepin-6-yl)methanone] | 100 to 1000
21 | CN(Cc1ccc(Br)c(C(F)F)c1)C(=O)c1cc2c(cc1F)nc(N)c1cncn12 [Ff-596, 4-amino-N-(4-bromo-3-(difluoromethyl)benzyl)-7-fluoro-N-methylimidazo[1,5-a]quinoxaline-8-carboxamide] | 100 to 1000
22 | Nc1nc2cc(Cl)c(C(=O)N3CC[C@H]4C[C@@H]3c3ccc(OC(F)F)cc34)cc2n2cncc12 [Ff-598, (4-amino-7-chloroimidazo[1,5-a]quinoxalin-8-yl)((1R,5S)-7-(difluoromethoxy)-1,3,4,5-tetrahydro-2H-1,5-methanobenzo[c]azepin-2-yl)methanone] | < 100
23 | Nc1nc2cc(Cl)c(C(=O)N3CC[C@H]4C[C@@H]3c3ccc(Cl)cc34)cc2n2cncc12 [Ff-599, (4-amino-7-chloroimidazo[1,5-a]quinoxalin-8-yl)((1R,5S)-7-chloro-1,3,4,5-tetrahydro-2H-1,5-methanobenzo[c]azepin-2-yl)methanone] | < 100
24 | CN(C(=O)c1cc2c(cc1F)nc(N)c1cncn12)C1COc2cc3ccccc3cc21 (stereo not shown) [Ff-600, 4-amino-N-(2,3-dihydronaphtho[2,3-b]furan-3-yl)-7-fluoro-N-methylimidazo[1,5-a]quinoxaline-8-carboxamide] | < 100
25 | Nc1nc2cnc(C(=O)N3CC[C@H]4C[C@@H]3c3ccc(Cl)nc34)cc2n2cncc12 [Ff-602, (4-aminoimidazo[1,5-a]pyrido[3,4-e]pyrazin-8-yl)((5R,9S)-2-chloro-5,7,8,9-tetrahydro-6H-5,9-methanopyrido[3,2-c]azepin-6-yl)methanone] | 100 to 1000
26 | Nc1nc2cc(F)c(C(=O)N3CC[C@H]4C[C@@H]3c3ccc(Cl)cc34)cc2n2cncc12 [Ff-603, (4-amino-7-fluoroimidazo[1,5-a]quinoxalin-8-yl)((1R,5S)-7-chloro-1,3,4,5-tetrahydro-2H-1,5-methanobenzo[c]azepin-2-yl)methanone] | 100 to 1000
27 | CCN(C(=O)c1cc2c(cn1)nc(N)c1cncn12)[C@@H]1COc2cc(C(F)(F)F)ccc21 [Ff-604, (S)-4-amino-N-ethyl-N-(6-(trifluoromethyl)-2,3-dihydrobenzofuran-3-yl)imidazo[1,5-a]pyrido[3,4-e]pyrazine-8-carboxamide] | < 100
28 | CN(C(=O)c1cc2c(cc1F)nc(N)c1cncn12)C1COc2cc(Cl)c(Br)cc21 (stereo not shown) [Ff-608, 4-amino-N-(5-bromo-6-chloro-2,3-dihydrobenzofuran-3-yl)-7-fluoro-N-methylimidazo[1,5-a]quinoxaline-8-carboxamide] | < 100
29 | CN(C(=O)c1cc2c(cc1F)nc(N)c1cncn12)C1COc2cc(Br)c(Cl)cc21 (stereo not shown) [Ff-609, 4-amino-N-(6-bromo-5-chloro-2,3-dihydrobenzofuran-3-yl)-7-fluoro-N-methylimidazo[1,5-a]quinoxaline-8-carboxamide] | < 100
30 | CCN(C(=O)c1cc2c(cn1)nc(N)c1c(C)ncn12)[C@@H]1COc2cc(C(F)(F)F)ccc21 [Ff-610, (S)-4-amino-N-ethyl-3-methyl-N-(6-(trifluoromethyl)-2,3-dihydrobenzofuran-3-yl)imidazo[1,5-a]pyrido[3,4-e]pyrazine-8-carboxamide] | < 100
31 | CCN(C(=O)c1cc2c(cn1)nc(N)c1cnc(C)n12)[C@@H]1COc2cc(C(F)(F)F)ccc21 [Ff-613, (S)-4-amino-N-ethyl-1-methyl-N-(6-(trifluoromethyl)-2,3-dihydrobenzofuran-3-yl)imidazo[1,5-a]pyrido[3,4-e]pyrazine-8-carboxamide] | < 100
